From patent US20230017045A1, “PYRIDINE AND PYRIMIDINE CARBOXYLATE HERBICIDES AND METHODS OF USE THEREOF” (Dow AgroSciences LLC, priority 2017, published 2023)

system: test plant species; assay: Post-emergent herbicidal activity test (greenhouse, foliar spray, visual growth reduction); format: in vivo; conditions: post-emergence, 336 h, ALOMY: blackgrass (Alopecurus myosuroides), 140 g ai/ha, 14 days after application, read-out: Visual Growth Reduction (%) 14 Days After Application, ALOMY
Method in brief: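 Plants grown in greenhouse (15 h photoperiod, 23-29° C day/22-28° C night) to first or second true leaf stage were sprayed overhead with compound in acetone/water/isopropanol/DMSO/crop oil/X-77 carrier at 187 L/ha. Injury was scored visually after 14 d on a 0-100% scale versus solvent-blank and untreated controls.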

| Compound | pest or weed control at 140 g/ha [%] |
| --- | --- |
| O=C(O)c1nc(-c2ccc(SC(F)(F)F)cc2)c(Cl)cc1Cl [F89, 3,5-Dichloro-6-(4-((trifluoromethyl)thio)phenyl) picolinic acid] | 0 to 29 |
| COC(=O)c1nc(-c2ccc(C#N)cc2Cl)ccc1Cl [F59, methyl 3-chloro-6-(2-chloro-4-cyanophenyl)picolinate] | 0 to 29 |
| COC(=O)c1nc(-c2ccc(SC(F)(F)F)cc2Cl)c(F)cc1Cl [F135, Methyl 3-chloro-6-(2-chloro-4-((trifluoromethyl)thio)phenyl)-5 fluoropicolinate] | 30 to 44 |

same assay, conditions: post-emergence, 336 h, AMARE: redroot pigweed (Amaranthus retroflexus), 140 g ai/ha, 14 days after application, read-out: Visual Growth Reduction (%) 14 Days After Application, AMARE

| Compound | pest or weed control at 140 g/ha [%] |
| --- | --- |
| O=C(O)c1nc(-c2ccc(SC(F)(F)F)cc2)c(Cl)cc1Cl [F89, 3,5-Dichloro-6-(4-((trifluoromethyl)thio)phenyl) picolinic acid] | 0 to 29 |
| COC(=O)c1nc(-c2ccc(C#N)cc2Cl)ccc1Cl [F59, methyl 3-chloro-6-(2-chloro-4-cyanophenyl)picolinate] | 85 to 94 |
| COC(=O)c1nc(-c2ccc(SC(F)(F)F)cc2Cl)c(F)cc1Cl [F135, Methyl 3-chloro-6-(2-chloro-4-((trifluoromethyl)thio)phenyl)-5 fluoropicolinate] | 95 to 100 |

same assay, conditions: post-emergence, 336 h, AVEFA: wild oat (Avena fatua), 140 g ai/ha, 14 days after application, read-out: Visual Growth Reduction (%) 14 Days After Application, AVEFA

| Compound | pest or weed control at 140 g/ha [%] |
| --- | --- |
| O=C(O)c1nc(-c2ccc(SC(F)(F)F)cc2)c(Cl)cc1Cl [F89, 3,5-Dichloro-6-(4-((trifluoromethyl)thio)phenyl) picolinic acid] | 0 to 29 |
| COC(=O)c1nc(-c2ccc(C#N)cc2Cl)ccc1Cl [F59, methyl 3-chloro-6-(2-chloro-4-cyanophenyl)picolinate] | 0 to 29 |
| COC(=O)c1nc(-c2ccc(SC(F)(F)F)cc2Cl)c(F)cc1Cl [F135, Methyl 3-chloro-6-(2-chloro-4-((trifluoromethyl)thio)phenyl)-5 fluoropicolinate] | 60 to 74 |

same assay, conditions: post-emergence, 336 h, CHEAL: lambsquarters (Chenopodium album), 140 g ai/ha, 14 days after application, read-out: Visual Growth Reduction (%) 14 Days After Application, CHEAL

| Compound | pest or weed control at 140 g/ha [%] |
| --- | --- |
| O=C(O)c1nc(-c2ccc(SC(F)(F)F)cc2)c(Cl)cc1Cl [F89, 3,5-Dichloro-6-(4-((trifluoromethyl)thio)phenyl) picolinic acid] | 45 to 59 |
| COC(=O)c1nc(-c2ccc(C#N)cc2Cl)ccc1Cl [F59, methyl 3-chloro-6-(2-chloro-4-cyanophenyl)picolinate] | 60 to 74 |
| COC(=O)c1nc(-c2ccc(SC(F)(F)F)cc2Cl)c(F)cc1Cl [F135, Methyl 3-chloro-6-(2-chloro-4-((trifluoromethyl)thio)phenyl)-5 fluoropicolinate] | 85 to 94 |

same assay, conditions: post-emergence, 336 h, CIRAR: canada thistle (Cirsium arvense), 140 g ai/ha, 14 days after application, read-out: Visual Growth Reduction (%) 14 Days After Application, CIRAR

| Compound | pest or weed control at 140 g/ha [%] |
| --- | --- |
| O=C(O)c1nc(-c2ccc(SC(F)(F)F)cc2)c(Cl)cc1Cl [F89, 3,5-Dichloro-6-(4-((trifluoromethyl)thio)phenyl) picolinic acid] | 0 to 29 |
| COC(=O)c1nc(-c2ccc(C#N)cc2Cl)ccc1Cl [F59, methyl 3-chloro-6-(2-chloro-4-cyanophenyl)picolinate] | 30 to 44 |
| COC(=O)c1nc(-c2ccc(SC(F)(F)F)cc2Cl)c(F)cc1Cl [F135, Methyl 3-chloro-6-(2-chloro-4-((trifluoromethyl)thio)phenyl)-5 fluoropicolinate] | 95 to 100 |

same assay, conditions: post-emergence, 336 h, CYPES: yellow nutsedge (Cyperus esculentus), 140 g ai/ha, 14 days after application, read-out: Visual Growth Reduction (%) 14 Days After Application, CYPES

| Compound | pest or weed control at 140 g/ha [%] |
| --- | --- |
| O=C(O)c1nc(-c2ccc(SC(F)(F)F)cc2)c(Cl)cc1Cl [F89, 3,5-Dichloro-6-(4-((trifluoromethyl)thio)phenyl) picolinic acid] | 0 to 29 |
| COC(=O)c1nc(-c2ccc(C#N)cc2Cl)ccc1Cl [F59, methyl 3-chloro-6-(2-chloro-4-cyanophenyl)picolinate] | 0 to 29 |
| COC(=O)c1nc(-c2ccc(SC(F)(F)F)cc2Cl)c(F)cc1Cl [F135, Methyl 3-chloro-6-(2-chloro-4-((trifluoromethyl)thio)phenyl)-5 fluoropicolinate] | 0 to 29 |

same assay, conditions: post-emergence, 336 h, DIGSA: crabgrass (Digitaria sanguinalis), 140 g ai/ha, 14 days after application, read-out: Visual Growth Reduction (%) 14 Days After Application, DIGSA

| Compound | pest or weed control at 140 g/ha [%] |
| --- | --- |
| O=C(O)c1nc(-c2ccc(SC(F)(F)F)cc2)c(Cl)cc1Cl [F89, 3,5-Dichloro-6-(4-((trifluoromethyl)thio)phenyl) picolinic acid] | 30 to 44 |
| COC(=O)c1nc(-c2ccc(C#N)cc2Cl)ccc1Cl [F59, methyl 3-chloro-6-(2-chloro-4-cyanophenyl)picolinate] | 60 to 74 |
| COC(=O)c1nc(-c2ccc(SC(F)(F)F)cc2Cl)c(F)cc1Cl [F135, Methyl 3-chloro-6-(2-chloro-4-((trifluoromethyl)thio)phenyl)-5 fluoropicolinate] | 95 to 100 |

same assay, conditions: post-emergence, 336 h, ECHCG: barnyardgrass (Echinochloa crus-galli), 140 g ai/ha, 14 days after application, read-out: Visual Growth Reduction (%) 14 Days After Application, ECHCG

| Compound | pest or weed control at 140 g/ha [%] |
| --- | --- |
| O=C(O)c1nc(-c2ccc(SC(F)(F)F)cc2)c(Cl)cc1Cl [F89, 3,5-Dichloro-6-(4-((trifluoromethyl)thio)phenyl) picolinic acid] | 0 to 29 |
| COC(=O)c1nc(-c2ccc(C#N)cc2Cl)ccc1Cl [F59, methyl 3-chloro-6-(2-chloro-4-cyanophenyl)picolinate] | 45 to 59 |
| COC(=O)c1nc(-c2ccc(SC(F)(F)F)cc2Cl)c(F)cc1Cl [F135, Methyl 3-chloro-6-(2-chloro-4-((trifluoromethyl)thio)phenyl)-5 fluoropicolinate] | 45 to 59 |

same assay, conditions: post-emergence, 336 h, IPOHE: ivy-leaf morning glory (Ipomoea hederacea), 140 g ai/ha, 14 days after application, read-out: Visual Growth Reduction (%) 14 Days After Application, IPOHE

| Compound | pest or weed control at 140 g/ha [%] |
| --- | --- |
| O=C(O)c1nc(-c2ccc(SC(F)(F)F)cc2)c(Cl)cc1Cl [F89, 3,5-Dichloro-6-(4-((trifluoromethyl)thio)phenyl) picolinic acid] | 0 to 29 |
| COC(=O)c1nc(-c2ccc(C#N)cc2Cl)ccc1Cl [F59, methyl 3-chloro-6-(2-chloro-4-cyanophenyl)picolinate] | 95 to 100 |
| COC(=O)c1nc(-c2ccc(SC(F)(F)F)cc2Cl)c(F)cc1Cl [F135, Methyl 3-chloro-6-(2-chloro-4-((trifluoromethyl)thio)phenyl)-5 fluoropicolinate] | 95 to 100 |

same assay, conditions: post-emergence, 336 h, KCHSC: kochia (Bassia scoparia), 140 g ai/ha, 14 days after application, read-out: Visual Growth Reduction (%) 14 Days After Application, KCHSC

| Compound | pest or weed control at 140 g/ha [%] |
| --- | --- |
| O=C(O)c1nc(-c2ccc(SC(F)(F)F)cc2)c(Cl)cc1Cl [F89, 3,5-Dichloro-6-(4-((trifluoromethyl)thio)phenyl) picolinic acid] | 0 to 29 |
| COC(=O)c1nc(-c2ccc(C#N)cc2Cl)ccc1Cl [F59, methyl 3-chloro-6-(2-chloro-4-cyanophenyl)picolinate] | 45 to 59 |
| COC(=O)c1nc(-c2ccc(SC(F)(F)F)cc2Cl)c(F)cc1Cl [F135, Methyl 3-chloro-6-(2-chloro-4-((trifluoromethyl)thio)phenyl)-5 fluoropicolinate] | 85 to 94 |

same assay, conditions: post-emergence, 336 h, ORYSA: rice (Oryza sativa), 140 g ai/ha, 14 days after application, read-out: Visual Growth Reduction (%) 14 Days After Application, ORYSA

| Compound | pest or weed control at 140 g/ha [%] |
| --- | --- |
| O=C(O)c1nc(-c2ccc(SC(F)(F)F)cc2)c(Cl)cc1Cl [F89, 3,5-Dichloro-6-(4-((trifluoromethyl)thio)phenyl) picolinic acid] | 0 to 29 |
| COC(=O)c1nc(-c2ccc(C#N)cc2Cl)ccc1Cl [F59, methyl 3-chloro-6-(2-chloro-4-cyanophenyl)picolinate] | 0 to 29 |
| COC(=O)c1nc(-c2ccc(SC(F)(F)F)cc2Cl)c(F)cc1Cl [F135, Methyl 3-chloro-6-(2-chloro-4-((trifluoromethyl)thio)phenyl)-5 fluoropicolinate] | 0 to 29 |

same assay, conditions: post-emergence, 336 h, SETFA: giant foxtail (Setaria faberi), 140 g ai/ha, 14 days after application, read-out: Visual Growth Reduction (%) 14 Days After Application, SETFA

| Compound | pest or weed control at 140 g/ha [%] |
| --- | --- |
| O=C(O)c1nc(-c2ccc(SC(F)(F)F)cc2)c(Cl)cc1Cl [F89, 3,5-Dichloro-6-(4-((trifluoromethyl)thio)phenyl) picolinic acid] | 0 to 29 |
| COC(=O)c1nc(-c2ccc(C#N)cc2Cl)ccc1Cl [F59, methyl 3-chloro-6-(2-chloro-4-cyanophenyl)picolinate] | 45 to 59 |
| COC(=O)c1nc(-c2ccc(SC(F)(F)F)cc2Cl)c(F)cc1Cl [F135, Methyl 3-chloro-6-(2-chloro-4-((trifluoromethyl)thio)phenyl)-5 fluoropicolinate] | 85 to 94 |

same assay, conditions: post-emergence, 336 h, SORVU: grain sorghum (Sorghum vulgare), 140 g ai/ha, 14 days after application, read-out: Visual Growth Reduction (%) 14 Days After Application, SORVU

| Compound | pest or weed control at 140 g/ha [%] |
| --- | --- |
| O=C(O)c1nc(-c2ccc(SC(F)(F)F)cc2)c(Cl)cc1Cl [F89, 3,5-Dichloro-6-(4-((trifluoromethyl)thio)phenyl) picolinic acid] | 0 to 29 |
| COC(=O)c1nc(-c2ccc(C#N)cc2Cl)ccc1Cl [F59, methyl 3-chloro-6-(2-chloro-4-cyanophenyl)picolinate] | 75 to 84 |
| COC(=O)c1nc(-c2ccc(SC(F)(F)F)cc2Cl)c(F)cc1Cl [F135, Methyl 3-chloro-6-(2-chloro-4-((trifluoromethyl)thio)phenyl)-5 fluoropicolinate] | 95 to 100 |

same assay, conditions: post-emergence, 336 h, STEME: common chickweed (Stellaria media), 140 g ai/ha, 14 days after application, read-out: Visual Growth Reduction (%) 14 Days After Application, STEME

| Compound | pest or weed control at 140 g/ha [%] |
| --- | --- |
| O=C(O)c1nc(-c2ccc(SC(F)(F)F)cc2)c(Cl)cc1Cl [F89, 3,5-Dichloro-6-(4-((trifluoromethyl)thio)phenyl) picolinic acid] | 0 to 29 |
| COC(=O)c1nc(-c2ccc(C#N)cc2Cl)ccc1Cl [F59, methyl 3-chloro-6-(2-chloro-4-cyanophenyl)picolinate] | 0 to 29 |
| COC(=O)c1nc(-c2ccc(SC(F)(F)F)cc2Cl)c(F)cc1Cl [F135, Methyl 3-chloro-6-(2-chloro-4-((trifluoromethyl)thio)phenyl)-5 fluoropicolinate] | 0 to 29 |

same assay, conditions: post-emergence, 336 h, TRZAS: wheat, spring (Triticum aestivum), 140 g ai/ha, 14 days after application, read-out: Visual Growth Reduction (%) 14 Days After Application, TRZAS

| Compound | pest or weed control at 140 g/ha [%] |
| --- | --- |
| O=C(O)c1nc(-c2ccc(SC(F)(F)F)cc2)c(Cl)cc1Cl [F89, 3,5-Dichloro-6-(4-((trifluoromethyl)thio)phenyl) picolinic acid] | 0 to 29 |
| COC(=O)c1nc(-c2ccc(C#N)cc2Cl)ccc1Cl [F59, methyl 3-chloro-6-(2-chloro-4-cyanophenyl)picolinate] | 0 to 29 |
| COC(=O)c1nc(-c2ccc(SC(F)(F)F)cc2Cl)c(F)cc1Cl [F135, Methyl 3-chloro-6-(2-chloro-4-((trifluoromethyl)thio)phenyl)-5 fluoropicolinate] | 45 to 59 |
